Results taken from BindingDB's records for doi:10.1016/j.bmc.2016.11.016 (University of Kaiserslautern, 2017).
pIC50: −log10 of the molar value.

Target: T1, Signal transducer and activator of transcription 1-alpha/beta (Homo sapiens, UniProt P42224)
T1 sequence (P42224 whole entry): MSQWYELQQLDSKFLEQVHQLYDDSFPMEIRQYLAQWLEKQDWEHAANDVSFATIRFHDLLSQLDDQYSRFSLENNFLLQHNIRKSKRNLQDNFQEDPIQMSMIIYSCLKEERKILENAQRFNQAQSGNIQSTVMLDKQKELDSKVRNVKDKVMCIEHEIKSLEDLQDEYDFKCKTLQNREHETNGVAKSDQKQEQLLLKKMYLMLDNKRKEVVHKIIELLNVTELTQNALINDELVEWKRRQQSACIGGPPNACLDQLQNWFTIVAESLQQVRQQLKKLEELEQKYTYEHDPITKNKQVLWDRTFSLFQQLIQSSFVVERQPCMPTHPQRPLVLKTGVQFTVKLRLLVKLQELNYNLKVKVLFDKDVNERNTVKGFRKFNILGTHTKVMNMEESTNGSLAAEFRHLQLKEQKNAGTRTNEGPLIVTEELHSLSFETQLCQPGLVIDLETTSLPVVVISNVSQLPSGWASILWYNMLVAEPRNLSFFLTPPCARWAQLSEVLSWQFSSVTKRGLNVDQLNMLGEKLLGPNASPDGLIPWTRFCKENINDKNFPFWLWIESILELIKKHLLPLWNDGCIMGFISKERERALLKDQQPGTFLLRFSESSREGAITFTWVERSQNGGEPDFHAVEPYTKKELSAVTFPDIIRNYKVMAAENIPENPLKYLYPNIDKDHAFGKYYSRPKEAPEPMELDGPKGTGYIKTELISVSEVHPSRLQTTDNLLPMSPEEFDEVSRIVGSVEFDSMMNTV
Experiment: Inhibition of Stat1 (unknown origin) expressed in LPS/INF-gamma-stimulated human MONO-MAC-6 cells assessed as reduction in GAS dependent transcription activity measured after 4 hrs by luciferase reporter gene assay

pIC50 | Structure (SMILES)
5.70 | C=C[C@H]1CC[C@]23C[C@@H]4[C@H](C)C(=O)[C@H]5O[C@]54[C@@]2(C)C[C@H](O)[C@]13C
< 4.30 | C=C[C@H]1CC[C@]23C[C@@H]4[C@H](C)[C@@H](O)[C@H]5O[C@@]45[C@@]2(C)CC(=O)[C@]13C
5.15 | CC(C)[C@H]1CC[C@]23C[C@@H]4[C@H](C)C(=O)[C@H]5O[C@]54[C@@]2(C)[C@@H](O)C(=O)[C@]13C
5.70 | CC(C)[C@H]1CC[C@]23C[C@@H]4[C@H](C)C(=O)[C@H]5O[C@]54[C@@]2(C)CC(=O)[C@]13C
